In patent US10358446B2, “Bruton's tyrosine kinase inhibitors” (Zibo Biopolar Changsheng Pharmaceutical Co. Ltd., priority 2015, dated 2019):

The compounds below were run against BTK (Homo sapiens (Human), UniProt Q06187) (assay: Btk kinase assay (HTRF)). Conditions: [ATP]=80 μM, BTK=3.4 nM; read-out: BTK Inhibition.
Assay type: biochemical
Method: Btk kinase activity was determined using a homogenous time resolved fluorescence (HTRF) methodology. Measurements were performed in a reaction volume of 15 μL using 384-well assay plates. Kinase enzyme, inhibitor, ATP and 1 μM peptide substrate were incubated in a reaction buffer compose of Hepes 50 mM (pH7.0), NaN3 0.02%, BSA 0.01%, Orthocanadate 0.1 mM. After one hour, the kinase reaction was quenched by the addition of […] antibody and XL-665 in 1× Detection buffer containing 60 mM EDTA (Cisbio), and the mixture was allowed to incubate for one hour. The HTRF signal was measured on a multimode plate reader (EnVision® Multilabel Reader, Perkin Elmer) with an excitation wavelength (λEx) of 330 nm and detection wavelengths (λEm) of 615 and 665 nrm. Activity was determined by the ratio of the fluorescence at 665 nm to that at 615 nm. For each compound, enzyme activity as measured at various concentrations of compound, Negative control reactions were performed in the absence of inhibitor in two replicates and eight no enzyme controls were used to determine baseline fluorescence levels. IC50s were obtained according to the equation: […] For BTK assay, [ATP]=80 μM, BTK=3.4 nM.

Sequence of BTK (Q06187 whole entry, species assumed): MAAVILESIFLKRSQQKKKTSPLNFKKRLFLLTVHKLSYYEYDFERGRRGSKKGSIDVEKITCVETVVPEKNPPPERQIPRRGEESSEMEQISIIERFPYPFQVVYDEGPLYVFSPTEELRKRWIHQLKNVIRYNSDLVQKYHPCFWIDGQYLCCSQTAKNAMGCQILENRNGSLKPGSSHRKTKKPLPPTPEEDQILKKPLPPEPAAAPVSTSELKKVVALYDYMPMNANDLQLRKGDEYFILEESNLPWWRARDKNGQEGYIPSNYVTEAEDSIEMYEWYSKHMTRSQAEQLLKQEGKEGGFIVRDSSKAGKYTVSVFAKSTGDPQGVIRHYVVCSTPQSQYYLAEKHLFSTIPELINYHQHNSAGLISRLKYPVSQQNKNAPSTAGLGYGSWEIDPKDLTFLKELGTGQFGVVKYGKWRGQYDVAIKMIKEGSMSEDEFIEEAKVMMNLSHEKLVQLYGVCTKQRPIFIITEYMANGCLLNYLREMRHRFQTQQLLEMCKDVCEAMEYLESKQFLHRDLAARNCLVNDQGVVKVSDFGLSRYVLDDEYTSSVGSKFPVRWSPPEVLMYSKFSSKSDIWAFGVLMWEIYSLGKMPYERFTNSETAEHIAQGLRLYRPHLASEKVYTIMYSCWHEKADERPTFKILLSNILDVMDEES

| SMILES | IC50 [µM] |
| --- | --- |
| C=CC(=O)N1CC[C@@H](n2c(=O)n(-c3ccc(Oc4ccc(C(F)(F)F)cc4)c(Cl)c3)c3cnccc32)C1 [Example 43, (R)-1-(1-acryloylpyrrolidin-3-yl)-3-(3-chloro-4-(4-(trifluoromethyl)phenoxy)phenyl)-1H-imidazo[4,5-c]pyridin-2(3H)-one] | 0.1 to 1 |
| C=CC(=O)N1CC[C@@H](n2c(=O)n(-c3ccc(Oc4ccc(Cl)c(Cl)c4)c(Cl)c3)c3cnccc32)C1 [Example 44, (R)-1-(1-acryloylpyrrolidin-3-yl)-3-(3-chloro-4-(3,4-dichlorophenoxy)phenyl)-1H-imidazo[4,5-c]pyridin-2(3H)-one] | 0.01 to 0.1 |
| C=CC(=O)N1CC[C@@H](n2c(=O)n(-c3ccc(Oc4cccc(OC)c4)c(Cl)c3)c3cnccc32)C1 [Example 45, (R)-1-(1-acryloylpyrrolidin-3-yl)-3-(3-chloro-4-(3-methoxyphenoxy)phenyl)-1H-imidazo[4,5-c]pyridin-2(3H)-one] | 0.01 to 0.1 |
| C=CC(=O)Nc1cccc(-n2c(=O)n(-c3ccc(Oc4cccc(OC(C)C)c4)c(C)c3)c3cnccc32)c1 [Example 46, N-(3-(3-(4-(3-isopropoxyphenoxy)-3-methylphenyl)-2-oxo-2,3-dihydro-1H-imidazo[4,5-c]pyridin-1-yl)phenyl)acrylamide] | 1 to 10 |
| C=CC(=O)Nc1cccc(-n2c(=O)n(-c3ccc(Oc4cccc(C)c4)c(C)c3)c3cnccc32)c1 [Example 47, N-(3-(3-(3-methyl-4-(m-tolyloxy)phenyl)-2-oxo-2,3-dihydro-1H-imidazo[4,5-c]pyridin-1-yl)phenyl) acrylamide] | 1 to 10 |
| C=CC(=O)Nc1cccc(-n2c(=O)n(-c3ccc(Oc4cccc(OC(C)C)c4)c(F)c3)c3cnccc32)c1 [Example 48, N-(3-(3-(3-fluoro-4-(3-isopropoxyphenoxy)phenyl)-2-oxo-2,3-dihydro-1H-imidazo[4,5-c]pyridin-1-yl)phenyl)acrylamide] | 0.01 to 0.1 |
| C=CC(=O)Nc1cccc(-n2c(=O)n(-c3ccc(Oc4cccc(C)c4)c(F)c3)c3cnccc32)c1 [Example 49, N-(3-(3-(3-fluoro-4-(m-tolyloxy)phenyl)-2-oxo-2,3-dihydro-1H-imidazo[4,5-c]pyridin-1-yl)phenyl)acrylamide] | 0.01 to 0.1 |
| C=CC(=O)Nc1cccc(-n2c(=O)n(-c3ccc(Oc4cccc(Cl)c4)c(F)c3)c3cnccc32)c1 [Example 50] | 0.1 to 1 |
| C=CC(=O)N1CC[C@@H](n2c(=O)n(-c3ccc(Oc4cccc(OC(C)C)c4)c(F)c3)c3cnccc32)C1 [Example 52, (R)-1-(1-acryloylpyrrolidin-3-yl)-3-(3-fluoro-4-(3-isopropoxyphenoxy)phenyl)-1H-imidazo[4,5-c]pyridin-2(3H)-one] | 0.1 to 1 |
| C=CC(=O)N1CC[C@@H](n2c(=O)n(-c3ccc(Oc4cccc(OC)c4)c(F)c3)c3cnccc32)C1 [Example 53, (R)-1-(1-acryloylpyrrolidin-3-yl)-3-(3-fluoro-4-(3-methoxyphenoxy)phenyl)-1H-imidazo[4,5-c]pyridin-2(3H)-one] | 0.01 to 0.1 |
| C=CC(=O)Nc1cccc(-n2c(=O)n(-c3ccc(Oc4cccc(Cl)c4F)cc3)c3cnccc32)c1 [Example 54, N-(3-(3-(4-(3-chloro-2-fluorophenoxy)phenyl)-2-oxo-2,3-dihydro-1H-imidazo[4,5-c]pyridin-1-yl)phenyl)acrylamide] | 0.01 to 0.1 |
| C=CC(=O)N1CC[C@@H](n2c(=O)n(-c3cccc(Oc4cccc(OC5CC5)c4)c3)c3cnccc32)C1 [Example 56, (R)-1-(1-acryloylpyrrolidin-3-yl)-3-(3-(3-cyclopropoxyphenoxy)phenyl)-1H-imidazo[4,5-c]pyridin-2(3H)-one] | 0.01 to 0.1 |
| C=CC(=O)Nc1cccc(-n2c(=O)n(-c3ccc(Oc4cccc(OC)c4)c(C)c3)c3cnccc32)c1 [Example 62, N-(3-(3-(4-(3-methoxyphenoxy)-3-methylphenyl)-2-oxo-2,3-dihydro-1H-imidazo[4,5-c]pyridin-1-yl)phenyl)acrylamide] | 0.01 to 0.1 |
| C=CC(=O)N1CC[C@@H](n2c(=O)n(-c3ccc(Oc4ccccc4)cc3)c3c(C#N)nccc32)C1 [Example 65] | 1 to 10 |
| C=CC(=O)N1CC[C@@H](n2c(=O)n(-c3ccc(Oc4cccnc4)cc3)c3cnccc32)C1 [Example 68, (R)-1-(1-acryloylpyrrolidin-3-yl)-3-(4-(pyridin-3-yloxy)phenyl)-1H-imidazo[4,5-c]pyridin-2(3H)-one] | 0.1 to 1 |

Continued, values first:

| IC50 [µM] | SMILES |
| --- | --- |
| 0.01 to 0.1 | C=CC(=O)N1CC[C@@H](n2c(=O)n(-c3ccc(Oc4ccc(OC)cc4)c(Cl)c3)c3cnccc32)C1 [Example 42, (R)-1-(1-acryloylpyrrolidin-3-yl)-3-(3-chloro-4-(4-methoxyphenoxy)phenyl)-1H-imidazo[4,5-c]pyridine-2(3H)-one] |
| 0.01 to 0.1 | C=CC(=O)N1CC[C@@H](n2c(=O)n(-c3cccc(Oc4cccc(F)c4C)c3)c3cnccc32)C1 [Example 55, (R)-1-(1-acryloylpyrrolidin-3-yl)-3-(3-(3-fluoro-2-methylphenoxy)phenyl)-1H-imidazo[4,5-c]pyridin-2(3H)-one] |
| 0.01 to 0.1 | C=CC(=O)N1CCC[C@@H](n2c(=O)n(-c3ccc(Oc4cccc(F)c4C)cc3)c3cnccc32)C1 [Example 57, (R)-1-(1-acryloylpiperidin-3-yl)-3-(4-(3-fluoro-2-methylphenoxy)phenyl)-1H-imidazo[4,5-c]pyridin-2(3H)-one] |
| 0.01 to 0.1 | C=CC(=O)N1CCC[C@@H](n2c(=O)n(-c3ccc(Oc4cccc(C)c4C)cc3)c3cnccc32)C1 [Example 58, (R)-1-(1-acryloylpiperidin-3-yl)-3-(4-(2,3-dimethylphenoxy)phenyl)-1H-imidazo[4,5-c]pyridin-2(3H)-one] |
| 0.01 to 0.1 | C=CC(=O)N1CCC[C@@H](n2c(=O)n(-c3ccc(Oc4cccc(Cl)c4F)cc3)c3cnccc32)C1 [Example 59, (R)-1-(1-acryloylpiperidin-3-yl)-3-(4-(3-chloro-2-fluorophenoxy)phenyl)-1H-imidazo[4,5-c]pyridin-2(3H)-one] |
| 0.01 to 0.1 | C=CC(=O)N1CCC[C@@H](n2c(=O)n(-c3ccc(Oc4cccc(F)c4F)cc3)c3cnccc32)C1 [Example 61, (R)-1-(1-acryloylpiperidin-3-yl)-3-(4-(2,3-difluorophenoxy)phenyl)-1H-imidazo[4,5-c]pyridin-2(3H)-one] |
| 0.01 to 0.1 | C=CC(=O)N1CC[C@@H](n2c(=O)n(-c3ccc(Oc4cccc(Cl)c4OC)cc3)c3cnccc32)C1 [Example 63, (R)-1-(1-acryloylpyrrolidin-3-yl)-3-(4-(3-chloro-2-methoxyphenoxy)phenyl)-1H-imidazo[4,5-c]pyridine-2(3H)-one] |
| 0.1 to 1 | C=CC(=O)N1CCC[C@@H](n2c(=O)n(-c3ccc(Oc4cccc(Cl)c4OC)cc3)c3cnccc32)C1 [Example 64, (R)-1-(1-acryloylpiperidin-3-yl)-3-(4-(3-chloro-2-methoxyphenoxy)phenyl)-1H-imidazo[4,5-c]pyridin-2(3H)-one] |
| 0.01 to 0.1 | C=CC(=O)N1CCC[C@@H](n2c(=O)n(-c3ccc(Oc4cccc(C)c4OC)cc3)c3cnccc32)C1 [Example 66, (R)-1-(1-acryloylpiperidin-3-yl)-3-(4-(2-methoxy-3-methylphenoxy)phenyl)-1H-imidazo[4,5-c] pyridin-2(3H)-one] |
| 0.01 to 0.1 | C=CC(=O)N1CC[C@@H](n2c(=O)n(-c3ccc(Oc4cccc(C)c4OC)cc3)c3cnccc32)C1 [Example 67, (R)-1-(1-acryloylpyrrolidin-3-yl)-3-(4-(2-methoxy-3-methylphenoxy)phenyl)-1H-imidazo[4,5-c]pyridin-2(3H)-one] |
